Several values for one entry are separate records, joined by “and”; a condition that tells them apart may be missing. Equal values may be shown once. Toxic doses and inconclusive results are not listed. Rule for the calls: active = survival T/C of 150% or more; inactive = T/C below 125% in these data.
Tested on: CD2F1 mice, L1210 leukemia ip, survival T/C
Assay: NCI In Vivo Anticancer Drug Screen. Data for tumor model L1210 Leukemia (intraperitoneal) in CD2F1 (CDF1) mice
Conditions: higher = longer survival
How it was run: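 Activity against a transplanted murine tumor was judged by comparing the compound group with a vehicle group. The outcome in the treated animals was divided by that in the controls.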

[1] = endpoint: mean survival time, dose: 12.5 mg/kg/injection, schedule: Q01DX009 (ip), vehicle: saline with Tween-80
[2] = endpoint: mean survival time, dose: 25.0 mg/kg/injection, schedule: Q01DX009 (ip), vehicle: saline with Tween-80
[3] = endpoint: mean survival time, dose: 100.0 mg/kg/injection, schedule: Q01DX009 (ip), vehicle: saline with Tween-80
[4] = endpoint: mean survival time, dose: 200.0 mg/kg/injection, schedule: Q01DX009 (ip), vehicle: saline with Tween-80
[5] = endpoint: mean survival time, dose: 400.0 mg/kg/injection, schedule: Q01DX009 (ip), vehicle: saline with Tween-80
[6] = endpoint: mean survival time, dose: 100.0 mg/kg/injection, schedule: Q04DX003 (ip), vehicle: saline with Tween-80
[7] = endpoint: mean survival time, dose: 200.0 mg/kg/injection, schedule: Q04DX003 (ip), vehicle: saline with Tween-80
[8] = endpoint: mean survival time, dose: 400.0 mg/kg/injection, schedule: Q04DX003 (ip), vehicle: saline with Tween-80

Measured: T/C

O=C(CO)c1ccc([N+](=O)[O-])cc1
inactive: endpoint: mean survival time, dose: 3.12 mg/kg/injection, schedule: Q01DX009 (ip), vehicle: saline with Tween-80 98 % of control and 101 % of control | endpoint: mean survival time, dose: 6.25 mg/kg/injection, schedule: Q01DX009 (ip), vehicle: saline with Tween-80 96 % of control and 101 % of control | [1] 98 % of control and 101 % of control | [2] 95 % of control and 96 % of control | endpoint: mean survival time, dose: 50.0 mg/kg/injection, schedule: Q01DX009 (ip), vehicle: saline with Tween-80 101 % of control | [3] 95 % of control and 101 % of control

CC(=O)Nc1ccc(Nc2ccc(C(=C3C=CC(=[N+](C)CCC#N)C=C3)c3ccc(N(C)CCC#N)cc3)cc2)cc1
inactive: endpoint: mean survival time, dose: 12.0 mg/kg/injection, schedule: Q01DX009 (ip), vehicle: saline with Tween-80 107 % of control | [1] 107 % of control | [2] 105 % of control and 109 % of control | endpoint: mean survival time, dose: 200.0 mg/kg/injection, schedule: Q04DX002 (ip), vehicle: saline with Tween-80 106 % of control

CC(C(=O)c1cc(O)c(O)cc1C(O)(C(F)(F)F)C(F)(F)F)C(O)(C(F)(F)F)C(F)(F)F (centres undefined)
inactive: [3] 94 % of control | [4] 94 % of control | [5] 94 % of control

COc1ccc(C2(C)N=NC(=C(c3ccccc3)c3ccccc3)O2)cc1 (centres undefined)
inactive: [3] 97 % of control | [6] 91 % of control | [4] 86 % of control | [7] 91 % of control | [5] 86 % of control | [8] 93 % of control

c1ccc(-c2ccc(C3=NN(c4ccccc4)C(c4ccccc4)C3NC3CCCCC3)cc2)cc1 (centres undefined)
inactive: endpoint: mean survival time, dose: 12.5 mg/kg/injection, schedule: Q01DX009 (ip), vehicle: other 100 % of control | endpoint: mean survival time, dose: 25.0 mg/kg/injection, schedule: Q01DX009 (ip), vehicle: other 104 % of control | endpoint: mean survival time, dose: 50.0 mg/kg/injection, schedule: Q01DX009 (ip), vehicle: other 98 % of control | endpoint: mean survival time, dose: 100.0 mg/kg/injection, schedule: Q01DX009 (ip), vehicle: other 106 % of control | endpoint: mean survival time, dose: 200.0 mg/kg/injection, schedule: Q01DX009 (ip), vehicle: other 98 % of control

COc1ccc(OC)c(C=NCCN=Cc2cc(OC)ccc2OC)c1
inactive: [3] 87 % of control | [6] 90 % of control | [4] 95 % of control | [7] 88 % of control | [5] 87 % of control | [8] 87 % of control

O=CC(=O)c1ccc(O)cc1
inactive: endpoint: mean survival time, dose: 6.25 mg/kg/injection, schedule: Q01DX009 (ip), vehicle: saline 101 % of control | endpoint: mean survival time, dose: 12.5 mg/kg/injection, schedule: Q01DX009 (ip), vehicle: saline 97 % of control | endpoint: mean survival time, dose: 25.0 mg/kg/injection, schedule: Q01DX009 (ip), vehicle: saline 100 % of control | endpoint: mean survival time, dose: 50.0 mg/kg/injection, schedule: Q01DX009 (ip), vehicle: saline 103 % of control | endpoint: mean survival time, dose: 100.0 mg/kg/injection, schedule: Q01DX009 (ip), vehicle: saline 108 % of control

CCOc1cc(C(F)(F)F)nc2c3c(cc(OC)c12)CCCN3CC
inactive: [3] 98 % of control | [5] 90 % of control

CC(=O)Nc1c(C#N)ncn1C1OC(CO)C(O)C1O (centres undefined)
inactive: endpoint: median survival time, dose: 12.5 mg/kg/injection, schedule: Q01DX005 (ip), vehicle: saline 104 % of control | endpoint: median survival time, dose: 25.0 mg/kg/injection, schedule: Q01DX005 (ip), vehicle: saline 103 % of control | endpoint: median survival time, dose: 50.0 mg/kg/injection, schedule: Q01DX005 (ip), vehicle: saline 92 % of control | endpoint: median survival time, dose: 100.0 mg/kg/injection, schedule: Q01DX005 (ip), vehicle: saline 101 % of control | endpoint: median survival time, dose: 200.0 mg/kg/injection, schedule: Q01DX005 (ip), vehicle: saline 100 % of control

N#CC1C2CCC(O2)C1C(=O)Oc1ccccc1 (centres undefined)
inactive: endpoint: mean survival time, dose: 25.0 mg/kg/injection, schedule: Q04DX002 (ip), vehicle: saline with Tween-80 103 % of control | endpoint: mean survival time, dose: 50.0 mg/kg/injection, schedule: Q04DX002 (ip), vehicle: saline with Tween-80 95 % of control | endpoint: mean survival time, dose: 100.0 mg/kg/injection, schedule: Q04DX002 (ip), vehicle: saline with Tween-80 97 % of control and 110 % of control

CC(C)=NNS(=O)(=O)c1ccc(C)cc1
inactive: endpoint: mean survival time, dose: 25.0 mg/kg/injection, schedule: Q01DX009 (ip), vehicle: Klucel (hydroxypropylcellulose) (HPC) 102 % of control | endpoint: mean survival time, dose: 50.0 mg/kg/injection, schedule: Q01DX009 (ip), vehicle: Klucel (hydroxypropylcellulose) (HPC) 96 % of control | endpoint: mean survival time, dose: 100.0 mg/kg/injection, schedule: Q01DX009 (ip), vehicle: Klucel (hydroxypropylcellulose) (HPC) 93 % of control | endpoint: mean survival time, dose: 200.0 mg/kg/injection, schedule: Q01DX009 (ip), vehicle: Klucel (hydroxypropylcellulose) (HPC) 86 % of control | endpoint: mean survival time, dose: 400.0 mg/kg/injection, schedule: Q01DX009 (ip), vehicle: Klucel (hydroxypropylcellulose) (HPC) 91 % of control

c1ccc([P+](c2ccccc2)(c2ccccc2)C2OCCO2)cc1
inactive: endpoint: mean survival time, dose: 100.0 mg/kg/injection, schedule: Q01DX001 (ip), vehicle: saline with Tween-80 112 % of control

C1CCC(NC2=NCCO2)CC1
inactive: [6] 90 % of control

C[S+](C)c1ccccc1
inactive: endpoint: mean survival time, dose: 12.5 mg/kg/injection, schedule: Q04DX002 (ip), vehicle: saline 100 % of control | endpoint: mean survival time, dose: 25.0 mg/kg/injection, schedule: Q04DX002 (ip), vehicle: saline 96 % of control | endpoint: mean survival time, dose: 50.0 mg/kg/injection, schedule: Q04DX002 (ip), vehicle: saline 100 % of control

Cn1c(=O)[nH]c2c(nc(-c3ccccc3)n2C)c1=O
inactive: endpoint: mean survival time, dose: 12.5 mg/kg/injection, schedule: Q01DX005 (ip), vehicle: other 87 % of control | endpoint: mean survival time, dose: 25.0 mg/kg/injection, schedule: Q01DX005 (ip), vehicle: other 96 % of control | endpoint: mean survival time, dose: 50.0 mg/kg/injection, schedule: Q01DX005 (ip), vehicle: other 89 % of control | endpoint: mean survival time, dose: 100.0 mg/kg/injection, schedule: Q01DX005 (ip), vehicle: other 94 % of control

— PubChem BioAssay AID256 (DTP/NCI, 2004)
